Like-named read-outs stand apart in the source and are kept apart here.

Details of data set [1]: species or system male Sprague Dawley rats. The following applies: rat, in vivo. The method, then: Total urine recovery data for Tenofovir, TDF, and PB was calculated for the 24 hour collection period on Days 1 and 5. […] The reported urine recovery data included amount recovered (ng) and percent recovered (%) for […]. Individual and mean Tenofovir, TDF, and PB urine recovery data were presented with SD, reported to three significant figures, and CV %, reported to one decimal place.

The test system of data set [2] is human liver microsomes (HLM). Briefly: CYP reaction phenotyping using HLM and chemical inhibitors (% remaining). Type of data set: in vitro ADME. The following applies: human, microsomes, 5 μM, pH 7.4. An excerpt:
(§1) % Remaining of TA=100×At/A0
(§2) Where, At and A0 are the peak area ratio of TA to IS at time t and at time zero, respectively.

In data set [3] the target is T1, human liver microsomes (HLM) (Homo sapiens, UniProt P10635).
T1 construct: from tissue; host or cells: pooled human liver microsomes
The description is as above. It counts as in vitro ADME. The following applies: human, microsomes, 5 μM, pH 7.4.
Source text: as §1, §2

The target in data set [4] is T2, human liver microsomes (HLM) (Homo sapiens, UniProt P11712).
T2 construct: from tissue; host or cells: pooled human liver microsomes
Described as above. The following applies: human, microsomes, 5 μM, pH 7.4. It counts as in vitro ADME.
Source text: as §1, §2

Data set [5] has as its target T3, human liver microsomes (HLM) (Homo sapiens, UniProt P33261).
T3 construct: from tissue; host or cells: pooled human liver microsomes
The data set is described as above. It counts as in vitro ADME.
Source text: as §1, §2

The target of another data set is T4, BCRP (Homo sapiens, UniProt Q9UNQ0).
T4 sequence (Q9UNQ0 1-655): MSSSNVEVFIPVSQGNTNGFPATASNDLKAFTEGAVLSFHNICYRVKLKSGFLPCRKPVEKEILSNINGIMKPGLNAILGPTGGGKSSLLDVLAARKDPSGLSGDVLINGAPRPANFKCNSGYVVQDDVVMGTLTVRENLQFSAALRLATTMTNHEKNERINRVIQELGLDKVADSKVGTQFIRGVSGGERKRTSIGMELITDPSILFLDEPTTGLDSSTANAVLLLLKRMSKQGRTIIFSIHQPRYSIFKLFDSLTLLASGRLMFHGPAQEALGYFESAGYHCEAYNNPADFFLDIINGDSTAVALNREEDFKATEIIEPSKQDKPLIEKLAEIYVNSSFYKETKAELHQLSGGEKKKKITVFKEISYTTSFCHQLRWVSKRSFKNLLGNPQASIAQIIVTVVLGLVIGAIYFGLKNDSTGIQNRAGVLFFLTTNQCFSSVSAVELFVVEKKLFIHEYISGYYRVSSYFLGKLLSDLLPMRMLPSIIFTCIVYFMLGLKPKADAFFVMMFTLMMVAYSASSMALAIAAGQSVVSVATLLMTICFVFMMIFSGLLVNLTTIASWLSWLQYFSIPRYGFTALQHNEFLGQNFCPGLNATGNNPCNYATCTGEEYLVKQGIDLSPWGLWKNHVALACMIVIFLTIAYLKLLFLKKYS
Briefly: BCRP IC50 assessment, bidirectional cladribine transport in C2BBe1 cells. How it is done: After 30 minutes, the pre-incubation solution was aspirated.

The target of the next data set is T5, OAT1 (Homo sapiens, UniProt Q4U2R8).
T5 construct: expressed in transfected cells; host or cells: HEK293
T5 sequence (Q4U2R8 1-563): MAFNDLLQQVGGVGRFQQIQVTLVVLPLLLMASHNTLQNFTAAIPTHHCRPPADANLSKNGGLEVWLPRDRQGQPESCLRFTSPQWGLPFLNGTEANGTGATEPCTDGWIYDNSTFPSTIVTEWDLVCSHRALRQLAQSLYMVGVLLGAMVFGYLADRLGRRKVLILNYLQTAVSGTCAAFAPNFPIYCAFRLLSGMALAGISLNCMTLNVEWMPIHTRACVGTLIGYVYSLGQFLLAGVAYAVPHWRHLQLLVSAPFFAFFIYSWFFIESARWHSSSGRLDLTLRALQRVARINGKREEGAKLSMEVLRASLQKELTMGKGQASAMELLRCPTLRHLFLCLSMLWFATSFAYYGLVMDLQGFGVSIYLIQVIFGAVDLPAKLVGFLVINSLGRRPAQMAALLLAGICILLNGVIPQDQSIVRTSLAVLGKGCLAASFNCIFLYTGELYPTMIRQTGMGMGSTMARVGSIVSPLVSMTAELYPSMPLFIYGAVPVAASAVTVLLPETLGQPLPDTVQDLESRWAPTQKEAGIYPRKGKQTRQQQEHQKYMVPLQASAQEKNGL
Briefly: OAT1 inhibitor (IC50) assessment, PAH uptake in transfected HEK cells. It counts as in vitro ADME.

Data set [6] is described as follows: Non-specific binding assessment, uptake transporter format (cell-free poly-D-lysine plates). Type of data set: in vitro ADME. The following applies: cell-free poly-D-lysine-coated 24-well plates, without BSA pre-incubation, both matrices. How it is done: Two treatments (three wells each) were included: in the first treatment, the wells were pre-incubated for 5 minutes with HBSSg_7.4_BSA or HBSSg_8.5_BSA; in the second treatment, no pre-incubation was performed (Table 32). After the pre-incubation, the solution was aspirated, and dosing solution (500 μL) was added to each well. […] After the incubation, aliquots (200 μL) were withdrawn from each chamber, combined with an equal volume of acetonitrile containing IS, and stored at 4° C. until analysis.

A further data set addresses MATE2K (Homo sapiens, UniProt Q86VL8).
The mark [7] stands for this setting: human, microsomes, 0 h, 5 μM, pH 7.4.
Where [8] appears, read: human, microsomes, 5 min, 5 μM, pH 7.4.
[9] abbreviates: human, microsomes, 20 min, 5 μM, pH 7.4.
Setting [10] is: human, microsomes, 1 h, 5 μM, pH 7.4.
[11] abbreviates: TUDCA and PB present simultaneously, PAH uptake, HEK cells, read-out: estimated IC50 toward OAT1.
The mark [12] stands for this setting: previous study (Example 6), converted, read-out: IC50 for in vitro inhibition of human OAT1.

T3 sequence (P33261 whole entry): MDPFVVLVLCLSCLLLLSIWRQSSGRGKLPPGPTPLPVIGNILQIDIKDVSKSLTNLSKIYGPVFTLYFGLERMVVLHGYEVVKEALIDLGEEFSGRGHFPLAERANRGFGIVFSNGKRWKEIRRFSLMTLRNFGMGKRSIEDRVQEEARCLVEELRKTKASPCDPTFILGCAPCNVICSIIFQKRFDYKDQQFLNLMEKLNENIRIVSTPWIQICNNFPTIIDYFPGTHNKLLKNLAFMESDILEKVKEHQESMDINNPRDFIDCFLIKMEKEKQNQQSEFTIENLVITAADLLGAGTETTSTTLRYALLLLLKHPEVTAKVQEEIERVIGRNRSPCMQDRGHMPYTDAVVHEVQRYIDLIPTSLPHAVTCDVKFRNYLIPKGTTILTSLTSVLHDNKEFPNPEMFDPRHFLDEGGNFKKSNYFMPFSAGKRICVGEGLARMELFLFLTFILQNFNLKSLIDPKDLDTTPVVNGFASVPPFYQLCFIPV
T2 sequence (P11712 whole entry): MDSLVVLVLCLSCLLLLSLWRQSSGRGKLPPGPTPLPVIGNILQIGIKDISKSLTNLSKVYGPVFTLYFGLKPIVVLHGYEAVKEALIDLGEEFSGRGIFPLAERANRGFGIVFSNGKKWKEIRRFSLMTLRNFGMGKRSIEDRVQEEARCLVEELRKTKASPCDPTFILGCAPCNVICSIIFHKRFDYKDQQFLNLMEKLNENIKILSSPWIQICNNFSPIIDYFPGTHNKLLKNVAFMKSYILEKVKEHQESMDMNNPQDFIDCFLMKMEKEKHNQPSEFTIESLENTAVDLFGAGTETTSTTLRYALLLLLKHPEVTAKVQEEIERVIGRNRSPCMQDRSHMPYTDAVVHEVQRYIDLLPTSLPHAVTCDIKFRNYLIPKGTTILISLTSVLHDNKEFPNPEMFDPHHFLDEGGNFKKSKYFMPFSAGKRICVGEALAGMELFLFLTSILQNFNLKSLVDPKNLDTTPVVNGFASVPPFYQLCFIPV
T1 sequence (P10635 whole entry): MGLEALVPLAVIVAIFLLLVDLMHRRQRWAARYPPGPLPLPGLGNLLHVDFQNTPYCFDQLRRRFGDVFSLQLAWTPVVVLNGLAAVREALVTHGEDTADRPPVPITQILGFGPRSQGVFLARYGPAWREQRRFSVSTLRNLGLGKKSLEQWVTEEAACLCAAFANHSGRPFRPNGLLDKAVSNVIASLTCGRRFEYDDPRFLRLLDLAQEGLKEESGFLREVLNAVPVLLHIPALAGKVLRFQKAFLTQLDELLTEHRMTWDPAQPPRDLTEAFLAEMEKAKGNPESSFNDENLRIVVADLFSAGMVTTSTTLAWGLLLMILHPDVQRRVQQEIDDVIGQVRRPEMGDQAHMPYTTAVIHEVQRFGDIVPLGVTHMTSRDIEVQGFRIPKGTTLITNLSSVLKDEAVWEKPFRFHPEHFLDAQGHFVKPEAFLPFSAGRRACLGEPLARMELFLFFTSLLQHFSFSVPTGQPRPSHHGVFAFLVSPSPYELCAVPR
Chain of MATE2K (Q86VL8 1-566 isoform Q86VL8-3): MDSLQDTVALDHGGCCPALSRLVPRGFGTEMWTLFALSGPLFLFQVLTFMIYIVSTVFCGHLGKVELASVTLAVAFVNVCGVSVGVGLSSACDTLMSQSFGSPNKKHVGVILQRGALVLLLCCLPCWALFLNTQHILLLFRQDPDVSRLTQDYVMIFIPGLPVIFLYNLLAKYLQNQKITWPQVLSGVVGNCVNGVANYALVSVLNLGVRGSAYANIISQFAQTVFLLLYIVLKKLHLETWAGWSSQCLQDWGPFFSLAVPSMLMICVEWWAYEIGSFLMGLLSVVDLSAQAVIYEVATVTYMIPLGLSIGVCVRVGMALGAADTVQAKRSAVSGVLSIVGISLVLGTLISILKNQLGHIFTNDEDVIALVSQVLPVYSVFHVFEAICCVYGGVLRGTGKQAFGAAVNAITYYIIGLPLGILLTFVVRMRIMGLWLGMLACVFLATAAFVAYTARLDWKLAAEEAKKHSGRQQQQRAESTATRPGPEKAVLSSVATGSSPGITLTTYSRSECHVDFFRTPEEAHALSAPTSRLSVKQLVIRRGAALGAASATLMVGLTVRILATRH

Consider `O=C(O)CCCc1ccccc1` [PB, sodium phenylbutyrate], for which the Urine concentrations result in data set [1] (male, Sprague Dawley, po) is “Urine concentrations for PB analysis in all animals on Day 1, for TUDCA analysis in all animals on Days 1 and 5, and for TDF analysis in two animals on Day 1 and one animal on Day 5 were BLQ (<20 ng/mL) so no recovery data was calculated”. Besides, the “% Remaining of TA (n = 3) Average” value in data set [2] (5 min) was found to be 109%; in [2] (20 min), 113%; in data set [3] (0 h), 100%; in [3] (20 min) it was 97.5%; in [3] (1 h) it was 98.8%; in data set [4] (0 h), 100%. Moreover, the “% Remaining of TA (n = 3) Average” value in [4] (5 min) came to 103%; in data set [4] (20 min), 98.5%; in [4] (0.5 h), 99.6%; in data set [4] (1 h) it was 97.6%; in [5] (setting [7]), 100%; in data set [5] (setting [8]), 101%. Moreover, the “% Remaining of TA (n = 3) Average” value was 101% in [5] (setting [9]); 101% in [5] (human, microsomes, 0.5 h, 5 μM, pH 7.4); 101% in [5] (setting [10]). The IC50 at BCRP is 1.79 to 5.37 mM; on OAT1 (setting [11]), 6760 to 20300 nM; at OAT1 (setting [12]) it was 6720 to 20200 nM; against MATE2K it was greater than 73.9 mM. This molecule registered a recovery at 5 min in data set [6] greater than 90%.

Take `C[C@H](CCC(=O)NCCS(=O)(=O)O)[C@H]1CC[C@H]2[C@@H]3[C@@H](O)C[C@@H]4C[C@H](O)CC[C@]4(C)[C@H]3CC[C@]12C` [TUDCA, tauroursodeoxycholic acid]: in data set [1], the detection in urine result is given as “not detected in any urine samples”. In addition, the “% Remaining of TA (n = 3) Average” value in [2] (0 h) is recorded as 100%; in [3] (0 h), 100%; in data set [3] (5 min) it was 101%; in data set [3] (10 min) it was 110%; in data set [3] (20 min), 99.7%; in data set [3] (0.5 h), 101%. The “% Remaining of TA (n = 3) Average” value in [3] (1 h) is given as 87.2%; in data set [4] (0 h), 100%; in data set [4] (5 min), 102%; in data set [4] (10 min), 96.9%; in data set [4] (20 min) it was 92.8%; in data set [4] (0.5 h), 95.0%. In addition, the “% Remaining of TA (n = 3) Average” value is listed as 95.3% in [4] (1 h); 100% in [5] (setting [7]); 106% in [5] (setting [8]); 93.0% in data set [5] (human, microsomes, 10 min, 5 μM, pH 7.4); 93.1% in data set [5] (setting [9]); 94.5% in data set [5] (setting [10]). In data set [5] (reversible incubation condition, CYP2C19 (+NADPH, +N3B), 30 min), the “% Remaining of TA (n = 3) Average” value came out at 92.1%. Also, the 50% inhibitory concentration (IC50) against BCRP was 0.222 to 0.667 mM; on OAT1 (setting [11]), 74.1 to 222 nM; at OAT1 (setting [12]) it was 70 to 222 nM; on OAT1 (previous study (Example 6), read-out: IC50 for in vitro inhibition of human OAT1) it was 74 to 222 nM; against MATE2K it was greater than 0.81 mM. The same molecule had a recovery at 5 min in data set [6] greater than 90%.

By IC50 is commonly meant the point on the concentration scale where inhibition reaches its midpoint.

The record behind these values is US20230277630A1, “METHODS AND COMPOSITIONS FOR TREATING AMYOTROPHIC LATERAL SCLEROSIS” (Amylyx Pharmaceuticals, Inc., priority 2022, published 2023).
